In PMC3654204, “2-Aminoethoxydiphenyl borate activates the mechanically gated human KCNK channels KCNK 2 (TREK-1), KCNK 4 (TRAAK), and KCNK 10 (TREK-2)” (Frontiers in Pharmacology, 2013):

Columns and labels:
Test in all cases: two-electrode voltage clamp, Xenopus oocytes, current at +[…] mV
Type in all cases: cell-based
[1] = biological target: T1, hKCNK2 (hTREK-1) (Homo sapiens, UniProt O95069)
T1 construct: gene KCNK2; full-length cDNA clone in pDNR-dual purchased from Imagenes, subcloned into pSGEM; cRNA injected in Xenopus laevis oocytes; K2P channels are homodimers
T1 sequence (O95069 1-426): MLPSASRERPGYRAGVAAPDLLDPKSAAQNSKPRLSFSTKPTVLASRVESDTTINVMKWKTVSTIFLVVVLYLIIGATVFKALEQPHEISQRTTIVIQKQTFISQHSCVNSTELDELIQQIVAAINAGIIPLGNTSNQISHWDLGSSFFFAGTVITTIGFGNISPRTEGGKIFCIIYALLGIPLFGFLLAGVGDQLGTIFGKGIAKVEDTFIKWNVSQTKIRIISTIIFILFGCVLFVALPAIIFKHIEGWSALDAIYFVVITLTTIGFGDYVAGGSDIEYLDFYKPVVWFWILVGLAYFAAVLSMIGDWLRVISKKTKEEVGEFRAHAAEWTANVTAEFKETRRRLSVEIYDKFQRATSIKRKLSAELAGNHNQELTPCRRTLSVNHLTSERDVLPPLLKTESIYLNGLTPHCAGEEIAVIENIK

[2] = biological target: T2, hKCNK4 (hTRAAK) (Homo sapiens, UniProt Q9NYG8); details: activator; frog Ringer's solution, pH 7.2; EC50 could not be determined; also active in inside-out HEK293 patches
T2 construct: gene KCNK4; full-length cDNA clone in pBluescript SK+ purchased from Imagenes; cRNA injected in Xenopus laevis oocytes, pCDNA3 in HEK293; K2P channels are homodimers
T2 sequence (Q9NYG8 1-393): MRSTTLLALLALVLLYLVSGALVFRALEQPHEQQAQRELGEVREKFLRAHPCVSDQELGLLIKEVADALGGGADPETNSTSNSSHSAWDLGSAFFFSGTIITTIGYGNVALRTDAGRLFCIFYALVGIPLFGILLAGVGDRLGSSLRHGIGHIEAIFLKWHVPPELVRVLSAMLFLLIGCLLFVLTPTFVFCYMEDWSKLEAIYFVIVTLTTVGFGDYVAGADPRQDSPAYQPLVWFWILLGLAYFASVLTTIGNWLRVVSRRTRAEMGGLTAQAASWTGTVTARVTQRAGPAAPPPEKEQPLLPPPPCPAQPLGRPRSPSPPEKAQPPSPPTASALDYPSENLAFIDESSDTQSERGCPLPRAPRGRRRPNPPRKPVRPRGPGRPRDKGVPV

[3] = biological target: T3, hKCNK10 (TREK-2) (Homo sapiens, UniProt P57789)
T3 construct: gene KCNK10; full-length cDNA clone purchased from Imagenes, subcloned into pSGEM (cRNA, Xenopus laevis oocytes) and pCDNA3 (HEK293); K2P channels are homodimers
T3 sequence (P57789 1-538): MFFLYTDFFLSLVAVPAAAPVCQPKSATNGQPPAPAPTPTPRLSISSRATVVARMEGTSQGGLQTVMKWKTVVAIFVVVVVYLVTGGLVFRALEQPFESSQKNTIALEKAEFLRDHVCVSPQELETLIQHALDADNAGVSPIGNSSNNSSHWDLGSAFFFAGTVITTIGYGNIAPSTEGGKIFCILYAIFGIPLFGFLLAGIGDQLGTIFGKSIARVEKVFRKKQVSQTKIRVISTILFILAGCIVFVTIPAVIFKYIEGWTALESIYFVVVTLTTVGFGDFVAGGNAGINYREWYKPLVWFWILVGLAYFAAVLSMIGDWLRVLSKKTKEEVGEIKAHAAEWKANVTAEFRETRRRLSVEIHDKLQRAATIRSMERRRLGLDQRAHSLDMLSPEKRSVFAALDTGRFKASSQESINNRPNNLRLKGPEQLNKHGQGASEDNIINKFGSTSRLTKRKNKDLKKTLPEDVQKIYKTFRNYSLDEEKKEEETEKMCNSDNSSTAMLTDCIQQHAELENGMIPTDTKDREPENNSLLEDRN

EC50 [1]: 486 ± 135 µM
fold of basal current at 1 mM [2]: 2.68 ± 0.2 fold
EC50 [3]: 1.22 ± 0.39 mM
SMILES: NCCOB(c1ccccc1)c1ccccc1 [2-APB]
